Experimental data taken from patent US8114840B2, “Medicament containing activated antithrombin III” (Hamburger Stiftung zur Forderung Von Wissenschaft und Kultur, priority 2000, dated 2012).

What was measured:
thrombocytes [1] = experiment: Adhesion of thrombocytes to adhesion proteins (microtitre plate, hexosaminidase); format: cell-based; conditions: for inhibition of IDAAT-mediated adhesion of thrombocytes to collagen / inhibition of IDAAT-mediated adhesion of thrombocytes to thrombospondin (immobilized TSP-1): EDTA 5 mM; for inhibition of IDAAT-mediated adhesion of thrombocytes to thrombospondin (immobilized TSP-1): integrins 5 μg/ml, Wortmannin 20 nM, LY294002 50 μm, clone 37 with Fc receptor blocked by IV.3; for inhibition of IDAAT-mediated adhesion: Heparan sulfate 0-10 μg/ml, sulfatide 0-20 μg/ml
Protocol: The adhesion of thrombocytes was carried out according to Santoro et al, 1994. […] Non-adhering thrombocytes were thoroughly washed out. The number of adhering platelets was determined by lysing the platelets with Triton X-100 and determining the lysosomal enzyme hexosaminidase. In order to calibrate the adhesion assay a calibration series containing a known and increasing number of platelets was added to the microtitre plate and the absorbance of the reacted substrate p-nitrophenyl-N-acetyl-β-glucosaminide was determined in relation to the number of platelets.

TNF α = TNF α secretion of monocytes activated with S. aureus and interferon γ (ELISA); format: cell-based; conditions: substance alone
Protocol: FIG. 9: The IL-10 secretion of monocytes activated with S. aureus and interferon γ is increased by IDAAT. Thus IDAAT promotes the secretion of an interleukin which protects against LPS-induced lethality in animal experiments. The method used was carried out analogously to FIG. 8. IL-10 was determined by means of an ELISA. FIG. 10 (sequence in the figure title: SEQ ID NO:2): The TNF α secretion of monocytes activated with S. aureus and interferon γ is inhibited by the TSP-1 peptide […] NO: 2) (10a). […] TNF α was determined by means of an ELISA. The method used was carried out analogously to FIG. 8. FIG. 11: IDAAT inhibits the Arthus reaction in the ear of Balb-C mice • a) Mouse treated twice intraperitoneally at time 0 and 0+3 hours with 50 μg IDAAT each time. Arthus reaction in the left ear • b) Mouse treated intraperitoneally twice with control buffer. Arthus reaction in the left ear • c) BSA-FITC incorporated into the ears as a measure for the Arthus reaction in mice treated with IDAAT or control buffer. Arthus reaction in the left ear. FIG. 12: • a) dot plot of the thrombocyte-bacterial association • A: thrombocytes labelled with PE-conjugated anti-GPIX antibody (Beb 1) • B: bacteria (S. aureus) labelled with Syto 13 • C: bacteria-thrombocyte associates emitting both fluorescences • b) S. aureus (Cowan 1)-thrombocyte associates

[2] = test system: S. aureus binding to thrombocytes; experiment: S. aureus-thrombocyte associate formation, flow cytometry; format: cell-based
Protocol: Thrombocytes were labelled with a thrombocyte-specific phycoerythrin-conjugated anti-GPIX antibody (clone Beb 1). Bacteria (various S. aureus strains) were adjusted with Tris-buffered saline solution (TBS) to a number of 250,000 microorganisms/μl and labelled with the RNA-dye Syto 13 [MoBiTec, Göttingen] at a concentration of 2 μM. Labelled bacteria and labelled thrombocytes were co-incubated for 10 minutes at a ratio of 10:1.
The cell population were analysed in a flow cytometer. Cells that were positive for both fluorochromes were classified as associates (see FIG. 12a). Thrombin stimulation and release of TSP from the α-granula of the platelets increased the percentage of platelets carrying bacteria by 2.5-fold relative to the total number of thrombocytes.

[3] = test system: monocytes through a HMEC-1 monolayer; experiment: Transmigration of monocytes through endothelium (Transwell); format: cell-based, human; conditions: purified TSP 25 μg/ml
Protocol: Transmigration experiments were carried out as described by Kielbassa et al., 1998. The addition of IDAAT to the culture medium of the monocytes during a transmigration experiment stimulates dose-dependently the transmigration of monocytes through the endothelium by 2-3-fold (see FIG. 4).
(§1) Apoptotic PMNL were incubated for 30 minutes with Hepes-Tyrode buffer pH 7.4, washed, labelled with the anti-TSP antibody P10-PE and the fluorescence of 3000 cells was measured in a flow cytometer • b) PMNL were made apoptotic by incubation in a cell culture medium for 24 hours in an incubator according to Savill et al., 1992. Apoptotic PMNL were incubated for 30 minutes with TSP-1 (5 μg/ml) and IDAAT (10 μg/ml) in Hepes-Tyrode buffer pH 7.4, washed, labelled with the TSP antibody P10-PE and the fluorescence of 3000 cells was measured in a flow cytometer. • c) Procedure as in a and b: IDAAT was used at increasing concentrations, IDAAT mediates the binding of thrombospondin (10 μg/ml) that was either present endogenously or added exogenously. […] PE and FITC positive associates were measured using a flow cytometer. […]
After a 4 hour transmigration period, the inserts were carefully removed, the cell culture plate was placed for 30 min on ice in order to detach the adhered monocytes and the number of transmigrated monocytes was counted.

monocytes = experiment: TSP-1 binding to monocytes, flow cytometry with anti-TSP antibody clone P10-PE; format: cell-based, human; conditions: 10 μg/ml purified TSP-1, without IDAAT; ~1% without additions
Protocol: Whereas without the addition of purified TSP-1 and without the addition of IDAAT only ˜1% of eluted human monocytes could be detected in a flow cytometer by an antibody (clone P10) which recognizes TSP-1 on the cell surface, the number increases to ca. 5% by adding 10 μg/ml purified TSP-1.
as §1, with “exogenously. FIG. 3: IDAAT cross-links apoptotic PMNL with monocytes by means of TSP Eluted PMNL and eluted monocytes were incubated together for 30 minutes at room temperature with TSP and IDAAT at various concentrations and the cells were fixed.” for “exogenously.”

thrombocytes [4] = experiment: Thrombocyte aggregation according to Born; format: cell-based; conditions: purified thrombospondin 25 μg/ml alone
Protocol: Gel-filtered platelets (200,000/μl) in Hepes-Tyrode buffer pH 7.4 containing fibrinogen (100 μg/ml) were examined in an aggregometer according to Born.
The method used was elucidated in detail in the description of the example. FIG. 21: The addition of monocytes (100/μl) to thrombocytes (300,000/μl) increases the adhesion of thrombocytes to TSP-1, whereas the addition of erythrocytes (20,000/μl) has an inhibitory effect. The method used was elucidated in detail in the description of the example. FIG. 22: The IDAAT-induced thrombocyte adhesion was inhibited by the inhibitors of PI-3 kinase Wortmannin (20 nM) and LY294002 (50 μm). For this purpose Wortmannin and LY294002 were preincubated for 10 minutes before adding IDAAT. FIG. 23: IDAAT mediates thrombospondin-mediated thrombocyte aggregation Thrombocyte aggregation was carded out according to Born 1962. TSP-1 (25 μg/ml) was pipetted into an aggregation-cuvette containing gel-filtered platelets (200,000/μl) in Hepes-Tyrode buffer pH 7.4 containing 100 μg/ml fibrinogen. […] Addition of IDAAT led to a weak aggregation reaction Simultaneous addition of IDAAT and soluble TSP-1 led to a pronounced aggregation. FIG. 24: IDAAT mediates the microparticle formation of thrombocytes

In the case of `O=C(O)CN(CCN(CC(=O)O)CC(=O)O)CC(=O)O` [EDTA], the “inhibition of IDAAT-mediated adhesion of thrombocytes to collagen” value (thrombocytes [1]) is reported as “completely inhibits” and the “inhibition of IDAAT-mediated adhesion of thrombocytes to thrombospondin (immobilized TSP-1)” value (thrombocytes [1]) is reported as “completely inhibits”.

In the case of “RFYVVMWK (listed as Homo sapiens) [TSP-1 peptide RFYVVMWK]”, the “release/secretion of TNF α” value (TNF α) is reported as “inhibited”.

In the case of Thrombin [reference compound], the “increase of percentage of platelets carrying bacteria” value ([2]; thrombin stimulation, release of TSP from α-granula) is reported as 2.5 fold.

With “TSP-1: thrombospondin-1, trimeric modular glycoprotein purified from human thrombocytes” the “S. aureus (Cowan-1)-thrombocyte associates” value ([2]; TSP-1 added in addition to IDAAT) was “further increase in the number of associates”, the transmigration of monocytes [3] was “stimulates the transmigration” and the TSP-1 positive monocytes (monocytes) was “ca. 5%”. The thrombocyte aggregation (thrombocytes [4]) was “no aggregation”, the “inhibition of IDAAT-mediated adhesion of thrombocytes to collagen” value (thrombocytes [1]) was “inhibits” and the “inhibition of IDAAT-mediated adhesion of thrombocytes to thrombospondin (immobilized TSP-1)” value (thrombocytes [1]) was “inhibits”. The “adhesion of thrombocytes to collagen” value (thrombocytes [1]; FIG. 20, dose dependence) was “dose-dependently inhibits”.

With Heparan sulfate the “inhibition of IDAAT-mediated adhesion” value (thrombocytes [1]) was “do not inhibit”.

For sulfatide, the “inhibition of IDAAT-mediated adhesion” value (thrombocytes [1]) was “do not inhibit”.
